Where “and” joins values, the source holds several entries; their conditions need not be identical. Equal values may be shown once. Marks after values point to notes of the source that are not given here.
Tests used:
RXF 944LX = assay: Anticancer activity in RXF 944LX cancer bearing nude mice, intermittent and daily schedules; conditions: for MTD: i.p., RXF 944LX
Method: Cancer fragments (1-2 mm in diameter), obtained from xenografts in serial passage in nude mice, were implanted subcutaneously (S.C.) in a flank of male NRMI nude mice (one fragment per mouse). Mice with appropriate cancer volumes (5-7 mm in diameter) were randomly distributed to treatment and control groups (4 mice/group). The start of treatment was day 0. Cancer volume and body weights were measured at least twice per week.
The cancer volume of each animal was determined by two-dimensional measurement using calipers. The volume was calculated according to the formula: (a×b^2)×0.5; wherein a and b represent two perpendicular diameters in which a (length) is the larger diameter and b (width) the smaller diameter.
Relative cancer volumes (RCV) were calculated for each individual cancer by dividing the cancer volume on day X by the cancer volume on day 0 multiplied by 100%. The cancer volume of a treatment group was expressed as the median RCV of all mice of the group. Median RCV values were used for drawing growth curves and treatment evaluation. Optimal cancer growth inhibition at a particular day within the treatment period was calculated from the median RCV values of the treated (T) versus the controlled (C) group multiplied by 100%. A T/C value<50% was considered as anti-cancer activity.
In the experiment with renal cancer RXF 944LX, the anticancer activity of the compounds was explored using two administration schedules; 1) intermittent schedule of 4 days×3, and 2) a daily schedule for 2 weeks (days 0-4, 7-11).
The dose levels chosen for sodium meta-arsenite and arsenic acid sodium salt in these schedules were based on the experience in the 1st experiment. Additional small dose finding studies were executed.

[1] = Maximum tolerated dose assessment after daily oral gavages for 14 days in the mouse; assay type: in vivo, CD-1 mice
Method: The objective of this oral toxicity study was to establish a MTD after repeated administration of sodium meta-arsenite to mice.
Ampoules of sodium meta-arsenite (dissolved in 10% (w/v) glucose in water) in concentrations of 1, 1.6, 2.6, 4.1 and 6.5 mg/ml were stored in a refrigerator in the dark. Based on the previous study, the following doses were selected: 10, 16, 26, and 41 and 65 mg/kg/day. Each dose was administered daily by oral gavages to groups of 4 male and 4 CD-1 mice for 14 days, followed by a 14-day recovery period.
Clinical signs were evaluated daily and body weights were recorded twice weekly. Scheduled termination was performed on day 29 (after 14 days of recovery). Macroscopic examination was performed on all animals.

[2] = test system: panel of forty-one (41) human cancer cell lines; assay: Cytotoxic activity, panel of forty-one (41) human cancer cell lines
Text: In a next study, the cytotoxic activity of sodium meta-arsenite was head-to-head compared with arsenic trioxide in panels loaded with 41 cancer cell lines from ten human cancers.

ALL-SCID 4 = assay: Anticancer activity in human leukemia model ALL-SCID 4; conditions: for BW loss % (day) / Drug-related deaths: days 34-54
Text: Anticancer activity of the sodium meta-arsenite and arsenic trioxide against two human paediatric acute lymphoblastic leukemia (ALL) models in vivo, ALL-SCID 4 was investigated to compare.
Male NOD/SCID mice (deficient in T and B lymphocytes, NK cells and functional macrophages) were transplanted s.c. on day 0 with fragments of ALL-SCID 4 cancers, which were obtained from mice used for routine passage of the cancers. Mice were randomized to the scheduled treatment groups.
Sodium meta-arsenite was administered orally at 2, 4 and 6 mg/kg/day (⅓ MTD, ⅔ MTD and MTD) once every day from day 34-54 after transplantation. The vehicle control (5% glucose in water) was administered i.p. (10 ml/kg).
Sodium meta-arsenite was dissolved in ready-to-use sterile infusion (5% (w/v) glucose in aqua injectabila). Arsenic trioxide was dissolved in 25 mM NaOH then dissolved in 5% glucose in aqua injectabila. The solutions were prepared freshly on the day of therapy for each administration.

[3] = 8 mg/kg i.p., days 0-4, 7, 14-18
[4] = panel of 41 human cancer cell lines

In the case of `O=[As][O-].[Na+]` [Sodium meta-arsenite, sodium meta-arsenite], the “BW loss % (day)” value (RXF 944LX; 4 mg/kg i.p., days 0-4, 7-11) is reported as −3 (7) %, the Drug-related deaths (RXF 944LX; 4 mg/kg i.p., days 0-4, 7-11) is reported as 2/6 and the “SGD (specific growth delay)” value (RXF 944LX; 4 mg/kg i.p., days 0-4, 7-11) is reported as 0.1. The T/C % (RXF 944LX; 4 mg/kg i.p., days 0-4, 7-11) was 55%, the “BW loss % (day)” value (RXF 944LX; 5 mg/kg i.p., days 0, 4, 8) was −2 (3) % and the Drug-related deaths (RXF 944LX; 5 mg/kg i.p., days 0, 4, 8) was 0/6. For the same molecule, the “SGD (specific growth delay)” value (RXF 944LX; 5 mg/kg i.p., days 0, 4, 8) was −0.5, the T/C % (RXF 944LX; 5 mg/kg i.p., days 0, 4, 8) was 84% and the “BW loss % (day)” value (RXF 944LX; [3]) was −14 (10) %. The Drug-related deaths (RXF 944LX; [3]) was 3/6, the Drug-related deaths (RXF 944LX; 10 mg/kg i.p., days 0, 4, 8) was 5/6 and the MTD (RXF 944LX; daily schedule (days 0-4, 7-11)) was 4 mg/kg/day. For the same molecule, the MTD (RXF 944LX; intermittent schedule (4 days×3)) was 5 mg/kg/day, the Findings ([1]; 10 mg/kg/day oral gavage 14 days, mouse) was “No findings were noted” and the Findings ([1]; 16 mg/kg/day oral gavage 14 days, mouse) was “Piloerection on the head was noted for one male on days 4 and 5”. For the same molecule, the “Findings (mortality)” value ([1]; 26 mg/kg/day oral gavage 14 days, mouse) was “No unscheduled mortality occurred”, the “Findings (mortality)” value ([1]; 41 mg/kg/day oral gavage 14 days, mouse) was “All males died on days 2-4 and all females on days 2-7” and the “Findings (mortality)” value ([1]; 65 mg/kg/day oral gavage 14 days, mouse) was “All animals died on days 2 or 3, all females died on day 1 or 2”. The “MTD (or LD10 value)” value ([1]; mice, males and females, oral once daily 14 days, calculated) was 32 mg/kg/day, the MTD ([1]; mouse, oral once daily 14 days) was 96 mg/m^2/day and the “activity in panel of 41” value ([2]; 0.01 μg/ml and 0.001 μg/ml) was “showed no activity”. For the same molecule, the “cancer cell lines that responded, out of forty one (41)” value ([2]; 0.1 μg/ml) was 16, the “cancer cell lines that responded, percent of 41” value ([2]; 1 μg/ml, more than 70% growth inhibition) was 80% and the “cancer cell lines in which active, percent of 41” value ([2]; 10 μg/ml) was 100%. For the same molecule, the “selectivity (individual IC70<½ mean IC70), fraction of cell lines” value (shortened to “selectivity … fraction of cell lines”) ([2]; breast (mammary) cancer cell lines) was “¾”, the “fold more potent than arsenic trioxide” value ([2]; conclusion of in vitro data) was “at least 10 fold” and the “selectivity … fraction of cell lines” value ([2]; leukemia cell lines) was “¾”. For the same molecule, the “selectivity … fraction of cell lines” value ([2]; melanoma cell lines) was 4/7, the “Mean IC50” value [2, 4] was 0.129 µg/mL and the “Mean IC70” value [2, 4] was 0.329 μg/ml and 2.53 μM. The “Mean IC90” value [2, 4] was 1.691 µg/mL, the “Mean IC70” value ([2]; panel of 41 human cancer cell lines, listed as sodium meta-arsenite) was 0.329 μg/ml and 2.53 μM and the IC50 ([2]; read-out: Mean IC50, panel of 41 human cancer cell lines) was 990 nM. For the same molecule, the IC90 ([2]; read-out: Mean IC90, panel of 41 human cancer cell lines) was 13 µM, the “BW loss % (day)” value (ALL-SCID 4; 2 mg/kg p.o.) was 0 (44) % and the Drug-related deaths (ALL-SCID 4; 2 mg/kg p.o.) was 0/8. The T/C % (ALL-SCID 4; 2 mg/kg p.o., days 34-54 (⅓ MTD)) was 38* %, the T/C % (ALL-SCID 4; 2 mg/kg p.o., days 34-54 (⅓ MTD), listed as sodium meta-arsenite) was 38% and the “BW loss % (day)” value (ALL-SCID 4; 4 mg/kg p.o.) was “+5 (44) %”. For the same molecule, the Drug-related deaths (ALL-SCID 4; 4 mg/kg p.o.) was 0/8, the T/C % (ALL-SCID 4; 4 mg/kg p.o., days 34-54 (⅔ MTD)) was 55* % and the T/C % (ALL-SCID 4; 4 mg/kg p.o., days 34-54 (⅔ MTD), listed as sodium meta-arsenite) was 55%. The “BW loss % (day)” value (ALL-SCID 4; 6 mg/kg p.o.) was “+5 (44) %”, the Drug-related deaths (ALL-SCID 4; 6 mg/kg p.o.) was 0/8 and the T/C % (ALL-SCID 4; 6 mg/kg p.o., days 34-54 (MTD)) was 48* %. The T/C % (ALL-SCID 4; 6 mg/kg p.o., days 34-54 (MTD), listed as sodium meta-arsenite) was 48%, the MTD (ALL-SCID 4; small dose finding studies prior to the ALL-SCID 4 study) was 6 mg/kg/day and the “Body weight loss and lethality” value (ALL-SCID 4; treated groups 2, 4, 6 mg/kg/day p.o.) was “not observed”.

Reference: US20090061022A1, “Pharmaceutical composition comprising arsenite for the treatment of malignancy” (priority 2004, published 2009)
